In one assay the test system is NHEK cells. Kind of assay: Population doublings and telomere loss per population doubling of drug-treated NHEK's (qPCR). The format is cell-based, human. The settings on record: passage 10 and 11 NHEK's, versus DMSO control, FIG. 8b.
The nature of assay [1]: Canine case studies: biological age by breed-specific telomere length (DNA-My-Dog). The settings on record: for reduction in biological age: versus chronological age. The format is in vivo. The method, then: In 2017, a […] (D.O.B Jan. 5, 2008) female Lhasa Apso/Jack Russell/Shih Tzu cross-breed (confirmed by genetic breed analysis: DNA-My-Dog) with a body mass of 9 Kg, was treated with 0.6 gm/day of 22.2% Fenbendazole (Panacur® granules) which was given orally for 3 consecutive days/week for 1 month and this cycle was repeated every 3rd month giving 4 cycles/annum providing a total of 16×1 month treatment cycles spread over a period of 4 yrs up to the present day.
Subject C2A's chronological age was verified by microchip implantation date using the Petlog database and, in March 2022, a cheek epithelium swab was sent to DNA-My-Dog for genetic assessment of breed composition and biological age by analysis of breed-specific telomere length. The results, returned on the 30 Mar. 2022, reported a biological age of 3 yrs old. Three more treatment cycles were subsequently administered and a repeat biological age telomere test carried out on the 30 Sep. 2022 which also returned a biological age of 3 yrs old. […] Translating these findings to humans, a 14 yr old Lhasa Apso has an equivalent human age of about 72 whereas a 3 yr old has an equivalent human age of about 28. This indicates a potential reduction in human age of 44 yrs which would equate to a 61% reduction of biological age in humans.
In 2017, a 4 yr old Jack Russell/Poodle/Maltese cross-breed (Confirmed by genetic breed analysis: DNA-My-Dog) with a body mass of 9.2 Kg was treated with 1.0 gm/day of 22.2% Fenbendazole Panacur® granules for 3 days per week and 4 days without. The dosing schedule of 3 days with, 4 days without treatment per week was continued for 3 months after which the dose was reduced to 0.6 gm/day of Panacur® and treatment alternated between 1 month with and 1 month without for 19 months providing a total of 11×1 month treatment cycles over the whole time period. After this, treatment was discontinued for 2 years and 5 months up to 12 May 2022 when a cheek swab was taken for analysis of biological age and this was repeated 5 months later on the 30 Sep. 2022.
The initial reason for treating this animal was that it had been diagnosed with an anal sac adenocarcinoma and, at the time, it was decided to explore the use of Fenbendazole as an alternative treatment. […] Subject C2B's birth date was May 2014 giving a chronological age of 8 yrs which was verified by microchip implantation date using the Petlog database. Following the outlined treatment with Fenbendazole, in April 2022, a cheek epithelium swab was sent to DNA-My-Dog for assessment of breed composition and biological age by analysis of breed-specific telomere length. The result, returned on the 12 May 2022, reported a biological age of 1 yr old indicating a reduction in biological age of 7 yrs. which is equivalent to ˜90% reduction in biological age. […] After a further gap of 5 months without treatment, on the 30 Sep. […] However, unlike subject C2A, no treatment was given during this period so the most likely explanation is that the efficacy time-limit of the initial treatment has been exceeded.

Setting [2] is: dog C2A findings translated to equivalent human age.

Each structure is given as a SMILES string.

Experimental for NHEK cells: Sub-confluent passage 2 NHEK's in T75 flasks were cultured in complete KSFM maintained at 5% CO2, 37° C. until ˜80% confluent as described in 1.5. These were subsequently passaged and accurate cell counts determined by Via-1 cassette NC3000 Image Cell Cytometer. An aliquot of 40,000 cells was then seeded into T25 flasks which were incubated for 24 hours in KKSFM at 5% CO2, 37° C. to allow cells to adhere. […] These cultures were then incubated for another 3 days at 5% CO2, 37° C. when confluency was approx 80%. At this point, cells were harvested, Via-1 counts carried out, 50,000 cells pelleted for DNA preparation (DNeasy® Blood & Tissue Kit, Qiagen UK, Cat No 69505) and 40,000 cells seeded into a fresh T-25 flask for each specific drug treatment. The whole procedure was then repeated 8 times until passage 11. Extracted DNA quality and quantity was determined with a QuickDrop DNA Spectrophotometer (Molecular Devices. Model 504 7178) and then this was used to analyse comparative telomere length in each sample by use of a Relative Human Telomerase Length Quantification qPCR Assay Kit (ScienCell™, Cat No 8908) with a Stratagen qPCR/Real Time PCR Machine. Model Mx3005P®. […] Analysis of relative telomere length was carried out on DNA extracted from passages 3-10 in triplicate using a qPCR Assay Kit (ScienCell™, Cat No 8908), according to the manufacturer's instructions.

Take `COC(=O)Nc1nc2ccc(Sc3ccccc3)cc2[nH]1` [Fenbendazole, methyl 5-(phenylthio)-2-benzimidazole carbamate]: the “relative telomere loss per population doubling” value with NHEK cells is on record as “greatest reduction”. Also, the “potential reduction in human age” value in assay [1] (setting [2]) was determined as 44 yrs. In assay [1] (setting [2]), the “reduction of biological age in humans” value amounted to 61%. The “biological age (repeat test)” value worked out at 3 yrs in assay [1] (dog C2A, 30 Sep. 2022, after three more treatment cycles) and 3 yrs in assay [1] (dog C2B, 30 Sep. 2022, further 5 months without treatment). The biological age in assay [1] (dog C2A, chronological age 14 yrs, result 30 Mar. 2022, 0.6 gm/day Panacur granules 3 days/week, 1 month cycles over 4 yrs) stood at 3 yrs; in assay [1] (dog C2B, chronological age 8 yrs, result 12 May 2022, 19 months treatment then 2 yrs 5 months without), 1 yr. Moreover, the “reduction in biological age” value in assay [1] (dog C2A) is on record as 11 yrs; in assay [1] (dog C2A, over 4 years), roughly 80%.

The record behind these values is US20250352518A1, “A BENZIMIDAZOLE COMPOUND WITH ANTIHELMINTHIC ACTIVITY FOR USE IN REVERSING, ARRESTING OR SLOWING DOWN CELLULAR AGEING IN A VERTEBRATE SUBJECT” (RAVAN BIO LIMITED, priority 2022, published 2025).
